Measured values published in patent US11447486B2, “2-amino-benzimidazole derivatives and their use as 5-lipoxygenase and/or prostaglandin E synthase inhibitors” (INSTITUT PASTEUR KOREA, priority 2014, dated 2022).
Read-outs that look alike come from different tables or passages of the source. Values belong to the compound of their own block, whether it stands above or below them.

Assays:
human 5-LOX = target: T1, human 5-LOX (Homo sapiens, UniProt P09917); test: 5-LOX enzyme activity, fluorescence method (5-HPETE, H2DCFDA); type: biochemical
T1 construct: purchased Cayman 60402; host or cells: insect cells (lysate)
T1 sequence (P09917 1-674): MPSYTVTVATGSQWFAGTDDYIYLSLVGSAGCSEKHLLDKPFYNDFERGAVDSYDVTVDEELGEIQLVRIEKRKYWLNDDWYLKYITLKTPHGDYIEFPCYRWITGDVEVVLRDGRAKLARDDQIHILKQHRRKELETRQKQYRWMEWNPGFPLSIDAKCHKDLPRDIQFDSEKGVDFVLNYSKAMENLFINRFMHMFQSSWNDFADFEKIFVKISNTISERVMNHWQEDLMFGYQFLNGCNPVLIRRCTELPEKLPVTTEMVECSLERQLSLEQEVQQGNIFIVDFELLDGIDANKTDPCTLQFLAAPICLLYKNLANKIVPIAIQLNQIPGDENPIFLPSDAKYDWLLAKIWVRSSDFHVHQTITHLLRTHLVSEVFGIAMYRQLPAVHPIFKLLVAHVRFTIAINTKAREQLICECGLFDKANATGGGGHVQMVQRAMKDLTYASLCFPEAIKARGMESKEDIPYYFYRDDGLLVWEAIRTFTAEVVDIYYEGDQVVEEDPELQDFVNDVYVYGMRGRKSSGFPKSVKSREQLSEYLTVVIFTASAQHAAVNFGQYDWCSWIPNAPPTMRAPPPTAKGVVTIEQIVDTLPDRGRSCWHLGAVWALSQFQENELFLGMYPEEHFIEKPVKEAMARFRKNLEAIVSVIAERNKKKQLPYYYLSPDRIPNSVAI
Procedure, shortened: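 Compound (0.5 nM to 10 uM) pre-incubated 5 min with enzyme; reaction started with ATP (100 uM final) and arachidonic acid (3 uM final). All steps at room temperature, fluorescence read-out.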

[1] = tested on: Rat basophilic leukemia (RBL) cells; test: LTB4 secretion assay in RBL (rat basophilic leukemia cells); type: cell-based; conditions: Rattus norvegicus
Procedure, shortened: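 Cells seeded 2×10^4/well the day before, then pre-incubated 15 min at 37 °C in EMEM/0.5% FBS with compound (5 nM to 100 uM). Stimulation with 2.5 uM arachidonic acid plus 5 uM A23187 (final) for 10 min at 37 °C; LTB4 in supernatant quantified by EIA.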

Rat whole blood (RWB) = test: LTB4 secretion assay in RWB (rat whole blood); type: cell-based; conditions: Rattus norvegicus
Procedure, shortened: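 Heparinized blood from male Sprague Dawley rats (6-9 weeks) diluted 1:1 in RPMI, pre-incubated 15 min at 37 °C with compound (2.5 nM to 50 uM). Stimulated with 10 uM calcium ionophore A23187 for 10 min at 37 °C, stopped with ice-cold PBS; LTB4 in supernatant quantified by EIA.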

HeLa S3 cells = test: PGE2 inhibition assay (HTRF) in TNF-α stimulated HeLa S3 cells; type: cell-based; conditions: Homo sapiens; PGE2, 10 uM compound, HeLa S3 stimulated with TNF-α
Protocol: Human epitheloid cervix carcinoma HeLa S3 cells (2×10^6cells/ml) were seeded with modified F-12K buffer medium pH 7.4 in tissue culture plate and incubated for overnight at 37° C. and 5% CO2. Then medium was changed into new medium contained 10 uM testing compounds or 0.1% DMSO and incubated overnight. After incubation, cells were stimulated with 30 nM TNF-α (Tumor necrosis factor-α) for 16 h. For determination of PGE2, the supernatant was measured by PGE2 HTRF (Homogeneous Time Resolved Fluorescence) assay kit Inhibition of PGE2 by compounds is calculated as a percentage of activity in the presence of drug versus the activity in the stimulator TNF-α.

SMILES: CN(C)c1nc2cc(N)ccc2n1CCOc1ccc(OC(F)(F)F)cc1 [Compound 43]
IC50 (human 5-LOX; read-out: 5-LO (IC50)): 1 to 10 µM
EC50 ([1]; RBL): < 10 µM
EC50 (Rat whole blood (RWB)): > 20 µM
melting point: 60.8 to 61.6 °C

SMILES: CC(C)(Nc1ccc2[nH]c(NCc3ccc(Oc4ccccc4)cc3)nc2c1)C(N)=O [Compound 109]
IC50 (human 5-LOX; read-out: 5-LO (IC50)): < 1 µM
EC50 ([1]; RBL): < 10 µM
EC50 (Rat whole blood (RWB)): < 10 µM
melting point: > 173 °C

SMILES: Nc1ccc2c(c1)nc(N)n2CCc1ccc(F)cc1 [Compound 42]
IC50 (human 5-LOX; read-out: 5-LO (IC50)): 1 to 10 µM
EC50 ([1]; RBL): 10 to 20 µM
melting point: 178.2 to 179.6 °C

SMILES: Nc1ccc2nc(N)n(Cc3ccc(Oc4ccc(Cl)cc4)cc3)c2c1 [Compound 111]
IC50 (human 5-LOX; read-out: 5-LO (IC50)): < 1 µM
EC50 ([1]; RBL): < 10 µM
EC50 (Rat whole blood (RWB)): < 10 µM
melting point: 156.4 to 158.5 °C

SMILES: Nc1ccc2nc(N)n(Cc3ccc(Oc4ccc(Cl)cn4)cc3)c2c1 [Compound 195]
IC50 (human 5-LOX; read-out: 5-LO (IC50)): < 1 µM
EC50 ([1]; RBL): < 10 µM
EC50 (Rat whole blood (RWB)): < 10 µM
inhibition at 10 µM (HeLa S3 cells): < 40%

SMILES: Cn1c(NCCOc2ccc(OC(F)(F)F)cc2)nc2cc(N)ccc21 [Compound 53]
IC50 (human 5-LOX; read-out: 5-LO (IC50)): < 1 µM
EC50 ([1]; RBL): < 10 µM
EC50 (Rat whole blood (RWB)): < 10 µM
inhibition at 10 µM (HeLa S3 cells): > 70%

SMILES: Nc1ccc2[nH]c(NCc3ccc(Oc4ccc(F)c(Cl)c4)cc3)nc2c1 [Compound 102]
IC50 (human 5-LOX; read-out: 5-LO (IC50)): < 1 µM
EC50 ([1]; RBL): < 10 µM
EC50 (Rat whole blood (RWB)): < 10 µM
melting point: 58.4 to 66.6 °C

SMILES: CN(C)c1nc2ccc(N)cc2n1CCOc1ccc(OC(F)(F)F)cc1 [Compound 44]
IC50 (human 5-LOX; read-out: 5-LO (IC50)): < 1 µM
EC50 ([1]; RBL): < 10 µM
EC50 (Rat whole blood (RWB)): > 20 µM
inhibition at 10 µM (HeLa S3 cells): 40 to 70%
melting point: > 133 °C

SMILES: Cn1c(NCc2ccc(OCc3ccc(Cl)cn3)cc2)nc2ccc(N)cc21 [Compound 314]
IC50 (human 5-LOX; read-out: 5-LO (IC50)): < 1 µM
EC50 ([1]; RBL): 10 to 20 µM
melting point: 96.6 to 100.9 °C

SMILES: CC(Cc1ccc(Cl)cc1Cl)Nc1nc2cc(N)ccc2[nH]1 (stereo not shown) [Compound 107]
IC50 (human 5-LOX; read-out: 5-LO (IC50)): < 1 µM
EC50 ([1]; RBL): < 10 µM
EC50 (Rat whole blood (RWB)): > 20 µM
melting point: > 200.9 °C

SMILES: Nc1cc2nc(NCc3ccc(Oc4ccc(Cl)cc4)cc3)[nH]c2cc1Cl [Compound 147]
IC50 (human 5-LOX; read-out: 5-LO (IC50)): < 1 µM
EC50 ([1]; RBL): < 10 µM
EC50 (Rat whole blood (RWB)): < 10 µM
melting point: 191.4 to 193.5 °C

SMILES: Nc1ccc2[nH]c(NCc3ccc(Oc4cccc(Cl)c4)cc3)nc2c1 [Compound 122]
IC50 (human 5-LOX; read-out: 5-LO (IC50)): < 1 µM
EC50 ([1]; RBL): < 10 µM
EC50 (Rat whole blood (RWB)): < 10 µM
melting point: > 160.8 °C

SMILES: O=C(Nc1nc2cc(NCc3cnc[nH]3)ccc2[nH]1)c1ccc(F)cc1 [Compound 27]
IC50 (human 5-LOX; read-out: 5-LO (IC50)): 1 to 10 µM
EC50 ([1]; RBL): > 20 µM
melting point: > 142.9 °C (dec.)

SMILES: Nc1ccc2[nH]c(N3CCC(Oc4ccc(F)cc4)CC3)nc2c1 [Compound 34]
IC50 (human 5-LOX; read-out: 5-LO (IC50)): < 1 µM
EC50 ([1]; RBL): 10 to 20 µM
melting point: 193.3 to 205 °C

SMILES: Nc1ccc2nc(NCc3ccc(Cl)cn3)[nH]c2c1 [Compound 158]
IC50 (human 5-LOX; 5-LO (IC50, uM)): < 1 µM
EC50 [1]: > 20 µM
melting point: 101.8 to 104 °C

SMILES: Nc1ccc2[nH]c(NCc3cccc(Oc4ccccc4)c3)nc2c1 [Compound 103]
IC50 (human 5-LOX; read-out: 5-LO (IC50)): < 1 µM
EC50 ([1]; RBL): < 10 µM
EC50 (Rat whole blood (RWB)): < 10 µM
inhibition at 10 µM (HeLa S3 cells): > 70%

Second part, led by results:

IC50 (human 5-LOX; read-out: 5-LO (IC50)): < 1 µM
EC50 ([1]; RBL): < 10 µM
EC50 (Rat whole blood (RWB)): < 10 µM
melting point: 116.8 to 118.7 °C
SMILES: CN(C)c1ccc2[nH]c(NCc3ccc(Oc4ccccc4)cc3)nc2c1 [Compound 98]

IC50 (human 5-LOX; read-out: 5-LO (IC50)): < 1 µM
EC50 ([1]; RBL): < 10 µM
EC50 (Rat whole blood (RWB)): 10 to 20 µM
melting point: > 107.8 °C
SMILES: Nc1ccc2[nH]c(NCc3cccc4ccccc34)nc2c1 [Compound 91]
inhibition at 10 µM (HeLa S3 cells): > 70%

IC50 (human 5-LOX; read-out: 5-LO (IC50)): < 1 µM
EC50 ([1]; RBL): < 10 µM
EC50 (Rat whole blood (RWB)): 10 to 20 µM
melting point: > 130.8 °C
SMILES: CC(C)(C)c1ccc(CNc2nc3ccc(N)cc3[nH]2)cc1 [Compound 116]

IC50 (human 5-LOX; read-out: 5-LO (IC50)): < 1 µM
EC50 ([1]; RBL): < 10 µM
EC50 (Rat whole blood (RWB)): > 20 µM
SMILES: FC(F)(F)Oc1ccc(OC2CCN(c3ccc4nc(N5CCCC5)[nH]c4c3)C2)cc1 (stereo not shown) [Compound 99]
inhibition at 10 µM (HeLa S3 cells): > 70%

IC50 (human 5-LOX; read-out: 5-LO (IC50)): < 1 µM
EC50 ([1]; RBL): 10 to 20 µM
EC50 (Rat whole blood (RWB)): > 20 µM
melting point: > 220 °C
SMILES: Nc1ccc2[nH]c(NCc3ccc(N4CCN(c5ccc(OC(F)(F)F)cc5)CC4)cc3)nc2c1 [Compound 114]

IC50 (human 5-LOX; read-out: 5-LO (IC50)): < 1 µM
EC50 ([1]; RBL): < 10 µM
EC50 (Rat whole blood (RWB)): < 10 µM
SMILES: Nc1ccc2[nH]c(NCc3ccc(Oc4ccc(Cl)cc4)cc3)nc2c1 [Compound 86]
inhibition at 10 µM (HeLa S3 cells): > 70%

IC50 (human 5-LOX; read-out: 5-LO (IC50)): < 1 µM
EC50 ([1]; RBL): < 10 µM
melting point: 138.9 to 140.8 °C
SMILES: Cn1c(NCc2ccc(Oc3nc4ccc(Cl)cc4n3C)cc2)nc2ccc(NC3COC3)cc21 [Compound 423]

IC50 (human 5-LOX; read-out: 5-LO (IC50)): < 1 µM
EC50 ([1]; RBL): < 10 µM
EC50 (Rat whole blood (RWB)): < 10 µM
SMILES: Nc1ccc2[nH]c(N3CCC(Oc4ccc(OC(F)(F)F)cc4)C3)nc2c1 (stereo not shown) [Compound 54]
inhibition at 10 µM (HeLa S3 cells): > 70%

IC50 (human 5-LOX; read-out: 5-LO (IC50)): < 1 µM
EC50 ([1]; RBL): < 10 µM
EC50 (Rat whole blood (RWB)): > 20 µM
melting point: > 59.7 °C
SMILES: CC(C)(C)Oc1ccc(CNc2nc3ccc(N)cc3[nH]2)cc1 [Compound 121]

IC50 (human 5-LOX; read-out: 5-LO (IC50)): < 1 µM
EC50 ([1]; RBL): < 10 µM
EC50 (Rat whole blood (RWB)): < 10 µM
SMILES: Cn1c(NCc2ccc(Oc3ccc(C(F)(F)F)nc3)cc2)nc2ccc(NC3COC3)cc21 [Compound 226]
inhibition at 10 µM (HeLa S3 cells): > 70%

IC50 (human 5-LOX; read-out: 5-LO (IC50)): < 1 µM
EC50 ([1]; RBL): < 10 µM
EC50 (Rat whole blood (RWB)): > 20 µM
melting point: > 113.2 °C
SMILES: CC(C)(Nc1ccc2[nH]c(NCc3ccc(Oc4ccc(Cl)cc4)cc3)nc2c1)C(N)=O [Compound 118]

IC50 (human 5-LOX; read-out: 5-LO (IC50)): < 1 µM
EC50 ([1]; RBL): < 10 µM
EC50 (Rat whole blood (RWB)): < 10 µM
melting point: > 54.3 °C
SMILES: c1ccc(Oc2ccc(CNc3nc4cc(NC5CCOC5)ccc4[nH]3)cc2)cc1 (stereo not shown) [Compound 119]

IC50 (human 5-LOX; read-out: 5-LO (IC50)): < 1 µM
EC50 ([1]; RBL): 10 to 20 µM
melting point: > 207.2 °C
SMILES: CC(C)(C)c1ccc(Oc2ccc(CNc3nc4cc(N)ccc4[nH]3)cc2)cc1 [Compound 117]

IC50 (human 5-LOX; read-out: 5-LO (IC50)): < 1 µM
EC50 ([1]; RBL): > 20 µM
melting point: > 200 °C
SMILES: Nc1ccc2[nH]c(NCc3ccc(S(=O)(=O)Nc4ccc(Cl)cc4)cc3)nc2c1 [Compound 151]

IC50 (human 5-LOX; read-out: 5-LO (IC50)): < 1 µM
EC50 ([1]; RBL): < 10 µM
EC50 (Rat whole blood (RWB)): < 10 µM
melting point: 200.7 to 201.3 °C
SMILES: Nc1ccc2nc(NC3CCCC3)n(CCOc3ccc(OC(F)(F)F)cc3)c2c1 [Compound 120]
